Key:
[1] = test system: normal human epidermal melanocytes (line M99-1H6); assay: Intracellular melanin content of UVB-stimulated human cultured melanocytes; type: cell-based; details: With UV; for PA (pigmenting activity): vs irradiated control
Method: In order to evaluate the activity on pigmentation, an in vitro experiment, based on the measurement of intracellular melanin content of human cultured melanocytes exposed (UVB-stimulated) or not exposed to radiation, in the absence and in the presence of the test compound, was conducted. […] Normal human epidermal melanocytes from newborn foreskin were cultured at […] in MGM “serum free” medium (Melanocyte Growth Medium, PromoCell®) supplemented with antibiotics. Cultures were maintained at 37° C. in a humidified 5% CO2 atmosphere. Subcultures of human melanocytes were propaged in MGM medium and used just before reaching confluence. Cells were counted and diluted to the desired concentration in culture medium without calf serum. The cultured melanocytes were placed in 24-well plates at a density of 60×10^3 cells per well. Two plates were seeded with cells: one for the measurement of melanin content (“Melanin plate”) and the other for the measurement of cell densities (“Neutral Red” plate). […] Cells were incubated at 37° C., in a 95% air-5% CO2 atmosphere for eight days. During this period cells were exposed to UVB radiation at day 1 (D1), day 2 (D2), day 3 (D3), day 4 (D4), day 7 (D7) and day 8 (D8). UVB radiation exposure was carried out with a parallel bank of T[…]/12 tubes emitting a continuous spectrum between 280 and 320 nm with a peak emission at 312 nm. A UVB dose of 40 mJ/cm^2 was applied at each exposure. Sham-control cells were subjected to the same procedure, but without UV exposure and without treatment. Before exposure, cell monolayers were washed with pre-warmed Phosphate Buffer Solution (PBS) and then exposed to UVB in the presence of PBS (without test product). Immediately after irradiation PBS was replaced by fresh test medium. After treatment the culture medium was removed. The cells were washed with PBS at pH 6.8 and melanin was extracted by adding NaOH-DMSO solution. Melanin extracts were heated at 80° C. for 2 hours. After cooling, aliquots were added in 96-well microplates. Optical density (OD 450 nm) was recorded at 450 nm with a microplate reader (Dynatech MR 5000). Synthetic melanin standards (Sigma) were incubated at the same conditions. This standard curve allowed the transformation of OD 450 nm into the Melanin Unit Equivalent in each well. Melanin content was measured by absorbance at […] in control and treated melanin extracts. Results were expressed as μg melanin per well determined from the standard curve: DO(450 nm)=f([melanin]). Intracellular melanin content was measured on human normal melanocytes (line […]-1H6) after the formerly described treatment and UVB exposures of cultures. […] The melanin content (μg of melanin per well) was corrected by the cellular density of each respective culture (number of cells per well) in order to express the “Pigmentation level” of cells (expressed in pg melanin/cell). The pigmenting activity (PA) of the test product was calculated according the formula: [formula]

[2] = target: mushroom tyrosinase; details: enzymatic mushroom tyrosinase assay, literature; cited from earlier work

| SMILES | Melanin content ([1]; 1 μg/ml) | PA (pigmenting activity) ([1]; 1 μg/ml) | Melanin content ([1]; 5 μg/ml) | PA (pigmenting activity) ([1]; 5 μg/ml) | Melanin content ([1]; 10 μg/ml) | PA (pigmenting activity) ([1]; 10 μg/ml) | Melanin content ([1]; 50 μg/ml) | PA (pigmenting activity) ([1]; 50 μg/ml) | Melanin content ([1]; 100 μg/ml) | PA (pigmenting activity) ([1]; 100 μg/ml) | anti-tyrosinase IC50 [2] |
| --- | --- | --- | --- | --- | --- | --- | --- | --- | --- | --- | --- |
| O=c1cc(-c2ccc(O)c(O)c2)oc2cc(O)cc(O)c12 [Luteolin, 3′,4′,5,7-Tetrahydroxyflavone] | 57.56 +/− 0.0 pg melanin/well | −22% (p < 0.01) | 55.57 +/− 0.0 pg melanin/well | −25% (p < 0.01) | 54.84 +/− 1.56 pg melanin/well | −26% (p < 0.01) |  |  |  |  |  |
| C[C@@H]1O[C@@H](O[C@@H]2[C@@H](O)[C@H](OCCc3ccc(O)c(O)c3)O[C@H](CO)[C@H]2OC(=O)/C=C/c2ccc(O)c(O)c2)[C@H](O)[C@H](O)[C@H]1O [Verbascoside, 2-(3′,4′-dihydroxyphenyl)ethyl-O-α-1-rhamnopyranosyl-(1→3)-β-d-(4-O-caffeoyl)-glucopyranoside] |  |  |  |  |  | −20% (p < 0.01) | 58.32 +/− 4.44 pg melanin/well | −21% (p < 0.01) | 57.80 +/− 1.63 pg melanin/well | −22% (p < 0.01) |  |
| OCC1O[C@@H](Oc2ccc(O)cc2)C(O)C(O)[C@@H]1O (stereo partly drawn) [arbutin, hydroquinone β-d-glucopyranoside] |  |  |  |  |  |  |  |  |  |  | about 100 μg/ml |

— patent publication US20090028969A1, “Compostion for treating skin” (priority 2006, published 2009)
